Data published in patent publication US20230042881A1, “MODULATORS OF INTEGRATED STRESS RESPONSE PATHWAY” (Praxis Biotech LLC, priority 2021, published 2023).
Like-named read-outs stand apart in the source and are kept apart here.

How the values were obtained:
ATF4 = ATF4 expression inhibition assay (ATF4 5′UTR luciferase reporter, thapsigargin-stressed); type: cell-based; settings: Homo sapiens, HEK-293T, read-out: ATF4 inhibition
Protocol: The ATF4 reporter was prepared by fusing the human full length 5′UTR of ATF4 (NCBI Accession No. BC022088.2) upstream of the firefly luciferase coding sequence lacking the initiator methionine. The fused sequence was cloned into pLenti-EF1a-C-Myc-DDK-IRES-Puro cloning vector (Origen #PS100085) using standard methods.
HEK293T cells carrying the ATF4 luciferase reporter were plated on 96-well plates (Nunc) at 10,000 cells per well. Cells were treated two days after seeding with 100 nM thapsigargin (Tg) (Sigma-Aldrich #T9033) in the presence of different concentrations of selected compounds ranging from 0.1 nM to […]. Cells without treatment or cells treated with Tg alone were used as controls. Assay plates containing cells were incubated for 3 hours at 37° C.
Luciferase reactions were performed using Luciferase Assay System (Promega #E1501) as specified by the manufacturer. Luminescence was read with an integration time of 1 s and a gain of 110 using a Cytation-5 multi-mode microplate reader (BioTek).

[1] = system: Chinese hamster ovary (CHO) cells; test: Protein synthesis assay (puromycin incorporation, Western blot); type: cell-based; settings: Cricetulus griseus, read-out: % Protein synthesis relative to untreated (1 μM test compound)
Protocol: Chinese hamster ovary (CHO) cells were maintained at 37° C. and 5% CO2 in Dulbecco's Modified Eagle's Media (DMEM) supplemented with 10% fetal bovine serum, 2 mM L-glutamine, 100 U/ml penicillin, and 100 μg/ml streptomycin. After reaching 80% of confluence, cells were detached and seeded on 6 well plates in complete media, allowed to recover overnight and treated for 2 hours with 1 μM of the test compound (to assess protein synthesis levels in unstressed condition), or for 2 hours with 300 nM Tg in the presence of 1 μM of the test compound (to assess the recovery of protein synthesis in a stressed condition). Cells with Tg alone were used as controls.
After the 2 hours treatments, media were replaced by adding 10 μg/ml puromycin (Sigma Aldrich #P8833) in complete media for 30 min. Media were removed and cells were lysed with SDS-PAGE lysis buffer. Lysates were transferred to 1.5 ml tubes and sonicated for 3 min and total protein amount were quantified using BCA Protein Assay Kit (Pierce). Equal amount of protein (30 μg) was loaded on SDS-PAGE gels.
A HRP-conjugated secondary antibody (Rockland) was employed to detect immune-reactive bands using enhanced chemiluminescence (ECL Western Blotting Substrate, Pierce). Quantification of protein bands was done by densitometry using ImageJ software.
The percentage levels were normalized to the media alone condition, which correspond to 100% protein synthesis. […]

[2] = HEK293T cells carrying ATF4 luciferase reporter, 100 nM thapsigargin (Tg), 3 hours at 37° C.
[3] = unstressed CHO cells (without Tg), 2 hours, 1 μM test compound, media alone = 100%

SMILES | IC50 (ATF4; [2]) [µM] | activity at 1 µM [1, 3] [%] | IC50 (ATF4; 3 h) [µM] | activity at 1 µM ([1]; CHO, 2 h) [%]
O=C(N[C@H]1CC[C@H](C(=O)NCC2CNc3cc(Cl)ccc3O2)CC1)C1CNc2cc(Cl)ccc2O1 (stereo partly drawn) [Compound 77, 6-chloro-N-(trans-4-(((6-chloro-3,4-dihydro-2H-benzo[b][1,4]oxazin-2-yl)methyl)carbamoyl)cyclohexyl)-3,4-dihydro-2H-benzo[b][1,4]oxazine-2-carboxamide] | 0.01 to 0.1 | 76.6 |  | 
O=C(COc1ccc(Cl)c(F)c1)NN1CCC(C(=O)Nc2nc3cc(Cl)ccc3o2)CC1 [Compound 97, 1-(2-(4-chloro-3-fluorophenoxy)acetamido)-N-(5-chlorobenzo[d]oxazol-2-yl)piperidine-4-carboxamide] |  |  | 0.01 to 0.1 | 71.5
O=C(N[C@H]1CC[C@H](C(=O)Nc2nc3cc(Cl)ccc3o2)CC1)c1ccc2cc(Cl)ccc2n1 [Compound 99, 6-chloro-N-(trans-4-((5-chlorobenzo[d]oxazol-2-yl)carbamoyl)cyclohexyl)quinoline-2-carboxamide] |  |  | 0.01 to 0.1 | 84.8
O=C(NN1CCC(C(=O)Nc2nc3cc(Cl)ccc3o2)CC1)c1ccc2cc(Cl)ccc2n1 [Compound 100, 6-chloro-N-(4-(5-chlorobenzo[d]oxazol-2-ylcarbamoyl)piperidin-1-yl)quinoline-2-carboxamide] |  |  | 0.01 to 0.1 | 128
O=C(COc1ccc(Cl)c(F)c1)NN1CCC(C(=O)Nc2nc3cc(Cl)ccc3s2)CC1 [Compound 116, 1-(2-(4-chloro-3-fluorophenoxy)acetamido)-N-(5-chlorobenzo[d]thiazol-2-yl)piperidine-4-carboxamide] | 0.01 to 0.1 | 116 |  | 
O=C(N[C@H]1CC[C@H](C(=O)Nc2nc3cc(Cl)ccc3s2)CC1)c1ccc2cc(Cl)ccc2n1 [Compound 118, 6-chloro-N-(trans-4-(5-chlorobenzo[d]thiazol-2-ylcarbamoyl)cyclohexyl)quinoline-2-carboxamide] | < 0.01 | 109 |  | 
O=C(NN1CCC(C(=O)Nc2nc3cc(Cl)ccc3s2)CC1)c1ccc2cc(Cl)ccc2n1 [Compound 119, 6-chloro-N-(4-(5-chlorobenzo[d]thiazol-2-ylcarbamoyl)piperidin-1-yl)quinoline-2-carboxamide] | < 0.01 | 118 |  | 
O=C(CO[C@H]1C[C@@H](OC(F)(F)F)C1)N[C@H]1CC[C@H](C(=O)Nc2nc3cc(Cl)ccc3s2)CC1 [Compound 120, trans-N-(5-chlorobenzo[d]thaizol-2-yl)-4-(2-(cis-3-(trifluoromethoxy)cyclobutoxy)acetamido)cyclohexanecarboxamide] | 0.01 to 0.1 | 122 |  | 
O=C(Nc1ccc2cc(Cl)ccc2n1)C1CCN(NC(=O)[C@H]2C[C@@H](O)c3cc(Cl)ccc3O2)CC1 [Compound 124, 1-((2R,4R)-6-chloro-4-hydroxychroman-2-carboxamido)-N-(6-chloroquinolin-2-yl)piperidine-4-carboxamide] | < 0.01 | 183 |  | 
